From publication PMC5585349, “Biosynthesis of the nosiheptide indole side ring centers on a cryptic carrier protein NosJ” (Nature Communications, 2017)

Columns and labels:
NosI = NosI (Streptomyces actuosus, UniProt C6FX48); assay: LC-HR-MS detection of MIA-AMP ([…]); type: biochemical
NosK = target: T1, NosK (Streptomyces actuosus, UniProt C6FX50); assay: thioester hydrolysis, HPLC UV […] nm; type: biochemical; conditions: CoA thioester hydrolysed
T1 construct: expressed in E. coli, purified
T1 sequence (C6FX50 entry or part of it): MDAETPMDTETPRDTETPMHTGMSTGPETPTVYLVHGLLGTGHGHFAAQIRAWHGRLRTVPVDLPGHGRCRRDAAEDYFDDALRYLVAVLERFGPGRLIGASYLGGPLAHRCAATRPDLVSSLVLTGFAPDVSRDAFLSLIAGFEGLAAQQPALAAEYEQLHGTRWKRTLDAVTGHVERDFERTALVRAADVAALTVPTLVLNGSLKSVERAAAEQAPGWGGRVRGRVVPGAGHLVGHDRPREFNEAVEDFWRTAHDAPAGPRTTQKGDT

NosI, sequence (C6FX48 entry or part of it): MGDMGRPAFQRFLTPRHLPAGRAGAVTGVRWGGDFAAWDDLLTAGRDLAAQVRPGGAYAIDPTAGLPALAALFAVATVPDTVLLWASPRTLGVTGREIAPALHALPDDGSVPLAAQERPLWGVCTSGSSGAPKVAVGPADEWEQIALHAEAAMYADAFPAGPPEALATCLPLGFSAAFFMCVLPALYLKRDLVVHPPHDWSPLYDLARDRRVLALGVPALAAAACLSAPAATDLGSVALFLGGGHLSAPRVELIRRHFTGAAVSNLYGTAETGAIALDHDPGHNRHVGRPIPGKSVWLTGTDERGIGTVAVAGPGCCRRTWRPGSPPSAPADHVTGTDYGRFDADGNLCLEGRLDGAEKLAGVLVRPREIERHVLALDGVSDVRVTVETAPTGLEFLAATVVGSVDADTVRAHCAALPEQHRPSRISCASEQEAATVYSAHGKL

Nc1ncnc2c1ncn2[C@@H]1O[C@H](COP(=O)(O)OP(=O)(O)OP(=O)(O)O)[C@@H](O)[C@H]1O [ATP]
LC-HR-MS detection of MIA-AMP (4) (NosI; MIA co-substrate): LC-HR-MS analysis of the reaction mixture containing NosI, MIA and ATP clearly showed the production

Cc1cccc2[nH]c(C(=O)SCCNC(=O)CCNC(=O)[C@H](O)C(C)(C)COP(=O)(O)OP(=O)(O)OC[C@H]3O[C@@H](n4cnc5c(N)ncnc54)[C@H](O)[C@@H]3OP(=O)(O)O)c(C)c12 [DMIA-CoA]
thioester hydrolysis, HPLC UV 300 nm (NosK): NosK also hydrolyzes the CoA-bound MIA and DMIA thioesters with comparative efficiencies

Cc1c(C(=O)SCCNC(=O)CCNC(=O)[C@H](O)C(C)(C)COP(=O)(O)OP(=O)(O)OC[C@H]2O[C@@H](n3cnc4c(N)ncnc43)[C@H](O)[C@@H]2OP(=O)(O)O)[nH]c2ccccc12 [MIA-CoA]
thioester hydrolysis, HPLC UV 300 nm (NosK): NosK also hydrolyzes the CoA-bound MIA and DMIA thioesters with comparative efficiencies

Cc1c(C(=O)O)[nH]c2ccccc12 [compound 3, 3-methyl-2-indolic acid]
LC-HR-MS detection of MIA-AMP (4) (NosI; ATP co-substrate, MIA adenylated, then transferred to pantetheine or holo-NosJ): LC-HR-MS analysis of the reaction mixture containing NosI, MIA and ATP clearly showed the production
